From patent EP4512398A1, “FLURALANER FOR USE IN METHODS OF TREATMENT AND PREVENTION OF SEA LICE INFESTATION IN FISH” (Bimeda Animal Health Limited, priority 2023, dated 2025)

Tests used:
[1] = system: L. salmonis; experiment: proof-of-concept efficacy experiment: fluralaner in feed to sea-lice-infected farmed Atlantic salmon, lice counts; format: in vivo; conditions: for Average lice per fish / Total lice: 15 salmon sampled
Procedure: (§1) A proof-of-concept experiment was carried out to determine the efficacy of fluralaner as a treatment for L. salmonis in farmed Atlantic salmon. Salmon infected with sea lice were divided evenly into three tanks, 41 fish per tank. Tank A acted as a control and no fluralaner was administered to the salmon, Tank B was given a low dog dose (25 mg/ kg of body weight) treatment and Tank C was given a high dog dose treatment (56 mg/ kg body weight). (See bravecto-epar-product-information attached for dosing rates). The powdered form of the drug was administered by mixing with standard aquaculture salmonid feed using fish oil as a binder. The experiment lasted for one week, between the 4/08/23 and the 11/08/23.

[2] = system: Atlantic salmon; experiment: mortality, adverse effects and behaviour of treated salmon in the proof-of-concept trial; format: in vivo
Procedure: as §1
Samples have been retained for histology and residue testing.

[3] = Tank B, 25 mg/ kg of body weight oral in feed, 04/08/2023 (start of experiment, baseline)
[4] = Tank C, 56 mg/ kg body weight oral in feed, 04/08/2023 (start of experiment, baseline)

Cc1cc(C2=NOC(c3cc(Cl)cc(Cl)c3)(C(F)(F)F)C2)ccc1C(=O)NCC(=O)NCC(F)(F)F (stereo not shown) [fluralaner, Fluralaner]
Average lice per fish [1, 3]: 25.8
Total lice [1, 3]: 387
Average lice per fish ([1]; Tank B, 25 mg/ kg of body weight oral in feed, 11/08/2023 (after one week), control Tank A 21.9): 0.1
Total lice ([1]; Tank B, 25 mg/ kg of body weight oral in feed, 11/08/2023 (after one week), control Tank A 329): 1
Average lice per fish [1, 4]: 23.3
Total lice [1, 4]: 350
Average lice per fish ([1]; Tank C, 56 mg/ kg body weight oral in feed, 11/08/2023 (after one week), control Tank A 21.9): 0
Total lice ([1]; Tank C, 56 mg/ kg body weight oral in feed, 11/08/2023 (after one week), control Tank A 329): 0
total lice numbers on the salmon that received the treatment ([1]; after one week, control tank remained high): significantly reduced
efficacy in treating L. salmonis in Atlantic salmon ([1]; preliminary study, oral in feed, 25 and 56 mg/kg): highly effective
mortalities ([2]; during the trial period or since its discontinuation): no mortalities
adverse effects on the salmon ([2]; trial period): no obvious adverse effects
behaviour of the salmon ([2]; trial period): normal
